pIC50: −log10 of the molar value.
Tests used:
Human LBAT = biological target: T1, Human LBAT (Homo sapiens, UniProt Q14973); test: LBAT (h/m) assay: 3H-taurocholic acid uptake in human LBAT-overexpressing cells; type: cell-based; settings: 0.3 μM 3H-taurocholic acid and 7.5 μM cold taurocholic acid, 20 minutes, read-out: hLBAT IC50
T1 construct: expressed in transfected cells; kept under Geneticin selection
T1 sequence (Q14973 1-349): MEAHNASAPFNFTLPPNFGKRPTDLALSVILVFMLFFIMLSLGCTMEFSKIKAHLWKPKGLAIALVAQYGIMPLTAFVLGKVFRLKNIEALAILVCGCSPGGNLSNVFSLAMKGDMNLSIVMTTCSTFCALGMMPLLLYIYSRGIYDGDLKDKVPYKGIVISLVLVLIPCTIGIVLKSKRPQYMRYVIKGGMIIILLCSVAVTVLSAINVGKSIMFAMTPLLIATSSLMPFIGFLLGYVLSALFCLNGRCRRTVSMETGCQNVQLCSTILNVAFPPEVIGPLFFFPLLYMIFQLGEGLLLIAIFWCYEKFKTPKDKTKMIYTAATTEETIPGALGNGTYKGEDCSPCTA
Experimental: LBAT (h/m) Assay Protocol
20,000 cells (Human or Mouse LBAT-overexpressing cells) were seeded in 96-wells plate (Corning CLS3809) in 100 μL MEM-alpha medium (Gibco 12571-063) supplemented with 10% FBS (Gibco 10438026) containing Geneticin (Gibco 10131-027) (1 mg/mL) and incubated at 37° C. in 5% CO2 for 24 hours. After incubation, media was decanted from the wells and cells were washed two times with 300 μL of basal MEM-alpha medium (FBS-free). After decanting basal MEM-alpha medium each time, plates were tapped against paper towel to ensure maximum removal of residual media. For human LBAT, incubation mix was prepared by adding test inhibitor dilutions (3-fold serial dilution in DMSO (Sigma D2650), 10 points) in MEM-alpha (without FBS) containing 0.3 μM 3H-taurocholic acid (ARC ART-1368) and 7.5 μM cold taurocholic acid (Sigma T4009) (maintaining 0.2% final DMSO concentration). For mouse LBAT, incubation mix was prepared by adding test inhibitor dilutions (3-fold serial dilution in DMSO, 10 points) in MEM-alpha (without FBS) containing 0.3 μM 3H-taurocholic acid and 25 μM cold taurocholic acid maintaining 0.2% final DMSO concentration).
50 μL of incubation mix containing test inhibitors was then added to the wells (in duplicate) and the plates were incubated for 20 minutes in a CO2 incubator at 37° C. After incubation, the reaction was stopped by keeping the plates on ice water mix for 2-3 minutes and then the incubation mix was aspirated completely from the wells. The wells were washed two times with 250 μL of chilled unlabelled 1 mM taurocholic acid dissolved in HEPES (Gibco 15630080)-buffered (10 mM) HBSS (Gibco 14175079) (pH 7.4). The plates were tapped against a paper towel after every wash to ensure maximum removal of blocking buffer.
100 μL of MicroScint-20 (PerkinElmer 6013621) was added to the wells and kept overnight at room temperature before reading the plates in TopCount NXT™ Microplate Scintillation and Luminescence Counter from PerkinElmer under 3H Test protocol (set at 120 seconds reading time per well, with normal plate orientation).
(§1) Preparation of Test Compound Dilutions
(§2) All test compounds were provided in powder form at room temperature. 10 mM DMSO stocks of the test compounds were prepared, aliquoted and stored at −20° C. From the 10 mM DMSO stock of the compounds, a 3-fold serial dilution in DMSO was prepared to get a total of 10 dilutions of the test compounds. 0.5 μL of this dilution in DMSO was added to 250 μL of FBS-free basal media containing 3H-taurocholic acid and cold taurocholic acid to prepare the incubation mixture.

Human ASBT = biological target: T2, Human ASBT (Homo sapiens, UniProt Q12908); test: ASBT (h/m) assay: 3H-taurocholic acid uptake in human ASBT-overexpressing cells; type: cell-based; settings: 0.25 μM 3H-taurocholic acid and 5 μM cold taurocholic acid, 20 minutes, read-out: hASBT IC50
T2 construct: expressed in transfected cells; kept under Puromycin selection
T2 sequence (Q12908 1-348): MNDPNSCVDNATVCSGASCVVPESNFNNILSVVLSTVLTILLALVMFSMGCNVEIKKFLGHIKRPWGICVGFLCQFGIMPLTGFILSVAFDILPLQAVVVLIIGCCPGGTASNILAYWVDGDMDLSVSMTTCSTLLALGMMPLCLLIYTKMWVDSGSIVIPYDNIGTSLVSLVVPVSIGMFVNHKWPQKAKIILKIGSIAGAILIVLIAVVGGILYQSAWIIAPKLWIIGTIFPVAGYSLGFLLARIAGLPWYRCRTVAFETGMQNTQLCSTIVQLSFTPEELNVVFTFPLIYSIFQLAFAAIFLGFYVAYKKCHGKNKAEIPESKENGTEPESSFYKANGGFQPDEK
Experimental: ASBT (h/m) Assay Protocol
10,000 cells (Human or Mouse ASBT-overexpressing cells) were seeded in 96-wells plate (Corning CLS3809) in 200 μL MEM-alpha medium (Gibco 12571-063) supplemented with 10% FBS (Gibco 10438026) containing Puromycin (Gibco A1113803) (10 μg/mL) and incubated at 37° C. in 5% CO2 for 48 hours. After incubation, media was decanted from the wells and cells were washed two times with 300 μL of basal MEM-alpha medium (FBS-free). After decanting basal MEM-alpha medium each time, plates were tapped against paper towel to ensure maximum removal of residual media. Test inhibitor dilutions (highest test concentration being 10 μM, 3-fold serial dilution, 10 points) prepared in DMSO (Sigma D2650) were added in incubation mix (maintaining 0.2% final DMSO concentration) containing 0.25 μM 3H-taurocholic acid (ARC ART-1368) and 5 μM of cold taurocholic acid (Sigma T4009). 50 μL of incubation mix containing test inhibitors was then added to the wells (in duplicate) and the plates were incubated for 20 minutes in a CO2 incubator at 37° C. After incubation, the reaction was stopped by keeping the plates on ice water mix for 2-3 minutes and then the incubation mix was aspirated completely from the wells. The wells were washed two times with 250 μL of chilled unlabelled 1 mM taurocholic acid dissolved in HEPES (Gibco 15630080)-buffered (10 mM) HBSS (Gibco 14175079) (pH 7.4). The plates were tapped against a paper towel after every wash to ensure maximum removal of blocking buffer.
100 μL of MicroScint-20 (PerkinElmer 6013621) was added to the wells and kept overnight at room temperature before reading the plates in TopCount NXT™ Microplate Scintillation and Luminescence Counter from PerkinElmer under 3H Test protocol (set at 120 seconds reading time per well).
as §1, §2

| Compound | pIC50 (Human LBAT) | pIC50 (Human ASBT) |
| --- | --- | --- |
| CCCCC1(CC)CN(c2ccccc2)c2cc(Br)c(O/C=C/C(=O)O)cc2S(=O)(=O)C1 (racemic) [Example 4, (E)-3-((7-bromo-3-butyl-3-ethyl-1,1-dioxido-5-phenyl-2,3,4,5-tetrahydro-1,5-benzothiazepin-8-yl)oxy)acrylic acid] | 6.66 | 6.78 |
| CCCCC1(CC)CN(c2ccccc2)c2cc(SC)c(O/C=C\C(=O)O)cc2S(=O)(=O)C1 (racemic) [Example 59, (Z)-3-((3-butyl-3-ethyl-7-(methylthio)-1,1-dioxido-5-phenyl-2,3,4,5-tetrahydro-1,5-benzothiazepin-8-yl)oxy)acrylic acid] | – | 7.07 |
| CCCCC1(CC)CN(c2ccccc2)c2cc(SC)c(O/C=C/C(=O)O)cc2S(=O)(=O)N1 (racemic) [Example 76, (E)-3-((3-butyl-3-ethyl-7-(methylthio)-1,1-dioxido-5-phenyl-2,3,4,5-tetrahydro-1,2,5-benzothiadiazepin-8-yl)oxy)acrylic Acid] | 6.66 | 7.39 |
| CCCCC1(CC)CN(c2ccccc2)c2cc(NC)c(O/C=C/C(=O)O)cc2S(=O)(=O)C1 (racemic) [Example 91, (E)-3-((3-butyl-3-ethyl-7-(methylamino)-1,1-dioxido-5-phenyl-2,3,4,5-tetrahydro-1,5-benzothiazepin-8-yl)oxy)acrylic Acid] | 5.89 | 7.39 |
| CCCCC1(CC)CN(c2ccccc2)c2cc(Br)c(O/C=C/C(=O)O)cc2S(=O)(=O)C1 (single isomer, unassigned) [Example 5, (E)-3-((7-bromo-3-butyl-3-ethyl-1,1-dioxido-5-phenyl-2,3,4,5-tetrahydro-1,5-benzothiazepin-8-yl)oxy)acrylic acid] | 6.54 | 5.91 |
| CCCCC1(CC)CN(c2ccccc2)c2cc(SC)c(O/C=C/C(=O)O)cc2S(=O)(=O)C1 (single isomer, unassigned) [Example 17, (E)-3-((3-butyl-3-ethyl-7-(methylthio)-1,1-dioxido-5-phenyl-2,3,4,5-tetrahydro-1,5-benzothiazepin-8-yl)oxy)acrylic acid] | 6.94 | – |
| CCCCC1(CC)CN(c2ccccc2)c2cc(Cl)c(O/C=C/C(=O)O)cc2S(=O)(=O)C1 (single isomer, unassigned) [Example 51, (E)-3-((3-butyl-7-chloro-3-ethyl-1,1-dioxido-5-phenyl-2,3,4,5-tetrahydro-1,5-benzothiazepin-8-yl)oxy)acrylic acid] | 7.02 | – |
| CCCC[C@@]1(CC)CN(c2ccccc2)c2cc(SC)c(O/C=C\C(=O)O)cc2S(=O)(=O)C1 (single isomer, unassigned) [Example 60] | 5.37 | 7.41 |
| CCCC[C@]1(CC)CN(c2ccccc2)c2cc(SC)c(O/C=C\C(=O)O)cc2S(=O)(=O)C1 (single isomer, unassigned) [Example 61] | – | 5.79 |
| CCCC[C@]1(CC)CN(c2ccccc2)c2cc(SC)c(O/C=C/C(=O)O)cc2S(=O)(=O)N1 (single isomer, unassigned) [Example 78] | 7.02 | 6.81 |
| CCCC[C@@]1(CC)CN(c2ccccc2)c2cc(SC)c(O/C=C/C(=O)O)cc2S(=O)(=O)N1C (single isomer, unassigned) [Example 89] | 6.54 | 5.70 |
| CCCC[C@@]1(CC)CN(c2ccccc2)c2cc(NC)c(O/C=C/C(=O)O)cc2S(=O)(=O)C1 (single isomer, unassigned) [Example 92] | 5.83 | 6.13 |
| CCCC[C@]1(CC)CN(c2ccccc2)c2cc(NC)c(O/C=C/C(=O)O)cc2S(=O)(=O)C1 (single isomer, unassigned) [Example 93] | 5.50 | 7.28 |
| CCCC[C@]1(CC)CN(c2ccccc2)c2cc(F)c(O/C=C/C(=O)O)cc2S(=O)(=O)C1 (single isomer, unassigned) [Example 102] | 6.53 | 5.48 |
| CCCC[C@@]1(CC)CN(c2ccccc2)c2cc(F)c(O/C=C/C(=O)O)cc2S(=O)(=O)C1 (single isomer, unassigned) [Example 103] | 6.73 | 6.49 |
| CCCC[C@]1(CC)CN(c2ccccc2)c2cc(N(C)C)c(O/C=C(\F)C(=O)O)cc2S(=O)(=O)C1 (single isomer, unassigned) [Example 110] | 7.48 | 6.86 |
| CCCCC1(CCCC)CN(c2ccccc2)c2cc(SC)c(O/C=C/C(=O)O)cc2S(=O)(=O)C1 [Example 1, (E)-3-((3,3-dibutyl-7-(methylthio)-1,1-dioxido-5-phenyl-2,3,4,5-tetrahydro-1,5-benzothiazepin-8-yl)oxy)acrylic acid] | 6.84 | 7.15 |
| CCCCC1(CCCC)CN(c2ccccc2)c2cc(N(C)C)c(O/C=C/C(=O)O)cc2S(=O)(=O)C1 [Example 8, (E)-3-((3,3-dibutyl-7-(dimethylamino)-1,1-dioxido-5-phenyl-2,3,4,5-tetrahydro-1,5-benzothiazepin-8-yl)oxy)acrylic Acid] | 5.83 | 7.40 |
| CCCCC1(CCCC)CN(c2ccc(O)cc2)c2cc(SC)c(O/C=C/C(=O)O)cc2S(=O)(=O)C1 [Example 20, (E)-3-((3,3-dibutyl-5-(4-hydroxyphenyl)-7-(methylthio)-1,1-dioxido-2,3,4,5-tetrahydro-1,5-benzothiazepin-8-yl)oxy)acrylic Acid] | 5.89 | 7.70 |
| CCCCC1(CCCC)CN(c2ccccc2)c2cc(SCC)c(O/C=C/C(=O)O)cc2S(=O)(=O)C1 [Example 67, (E)-3-((3,3-dibutyl-7-(ethylthio)-1,1-dioxido-5-phenyl-2,3,4,5-tetrahydro-1,5-benzothiazepin-8-yl)oxy)acrylic Acid] | 6.34 | 6.72 |
| CCCCC1(CCCC)CN(c2ccccc2)c2cc(SC)c(O/C=C(\F)C(=O)O)cc2S(=O)(=O)N1C [Example 105, (Z)-3-((3,3-dibutyl-2-methyl-7-(methylthio)-1,1-dioxido-5-phenyl-2,3,4,5-tetrahydro-1,2,5-benzothiadiazepin-8-yl)oxy)-2-fluoroacrylic Acid] | 7.17 | – |

Reference: US11306064B2, “Benzothia(di)azepine compounds and their use as bile acid modulators” (Albireo AB, priority 2018, dated 2022)
